# According to patent US4582844A, “Antithrombotic 4,5 di-t-butyl-imidazole derivatives” (Hoffmann-La Roche Inc., priority 1980, dated 1986):
# Test system: Human platelet-rich plasma (blood platelets)
# Assay: Collagen-induced blood platelet aggregation (aggregometer method of Born; maximum aggregation velocity)
# Assay type: cell-based
# Settings: human citrated platelet-rich plasma, 10 min preincubation at 37° C., collagen fibrils
# Protocol: The maximum aggregation velocity was taken as the test parameter and the effective concentration (EC50) was ascertained from dosage-activity curves.
# Human platelet-rich plasma was obtained by centrifugation from citrated venous blood. The experiments were carried out with suspensions of the test substances in 0.9% sodium chloride. 0.18 ml of citrate plasma was treated with a 10 μl suspension of the test compound and incubated at 37° C. for 10 minutes, whereupon the aggregation was initiated by adding 10 μl of a suspension of collagen fibrils.
row,Structure (SMILES),EC50 [µM]
1,"CC(C)(C)c1nc(-c2ccc(F)cc2)[nH]c1C(C)(C)C [4,5-Di-t-butyl-2-(4-fluorophenyl)-imidazole]",0.5
2,"CC(C)(C)c1nc(-c2ccccc2)[nH]c1C(C)(C)C [4,5-Di-t-butyl-2-phenylimidazole, 4,5-di-t-butyl-2-phenylimidazole]",0.6
3,"COc1cc(-c2nc(C(C)(C)C)c(C(C)(C)C)[nH]2)cc(OC)c1OC [4,5-di-t-butyl-2-(3,4,5-trimethoxyphenyl)-imidazole]",0.72

# Second part, the compound after the results:
row,EC50 [µM],Structure (SMILES)
1,0.55,"CC(C)(C)c1nc(-c2ccc3c(c2)OCO3)[nH]c1C(C)(C)C [4,5-di-t-butyl-2-(3,4-methylenedioxyphenyl)-imidazole]"
2,14.4,"COc1cc(-c2nc(C(C)(C)C)c(C(C)(C)C)[nH]2)cc2c1OCO2 [4,5-di-t-butyl-2-(5-methoxy-3,4-methylenedioxyphenyl)-imidazole]"
